Test results: the NIST ThermoML archive (doi:10.1021/je020138s)

How the values were obtained:
[1] = excess molar enthalpy (molar enthalpy of mixing); xn = mol fraction of the nth substance listed; conditions: 101 kPa, Liquid, Calvet calorimetry
[2] = xn = mol fraction of the nth substance listed; conditions: 308.15 K, 101 kPa, Liquid

CCCCCCCCO [octan-1-ol] + CCCCCCCCCCCC
[1], 308.15 K
Conditions	excess molar enthalpy [kJ/mol]
x1 = 0.1345	0.721
x1 = 0.1898	0.782
x1 = 0.2658	0.828
x1 = 0.3122	0.836
x1 = 0.4077	0.831
x1 = 0.4433	0.821
x1 = 0.4591	0.812
x1 = 0.5302	0.777
x1 = 0.5667	0.749
x1 = 0.6587	0.663
x1 = 0.6595	0.668
x1 = 0.7509	0.529
x1 = 0.7661	0.504
x1 = 0.8263	0.39
x1 = 0.8566	0.327
x1 = 0.8983	0.24
x1 = 0.9353	0.153
x1 = 0.97	0.071

CCCCOC(=O)CCC [butyl butanoate] + CCCCCCCCCCCC
[2]
Conditions	excess molar volume [m3/mol]
x1 = 0.086	2.25e-07
x1 = 0.1642	4.085e-07
x1 = 0.2326	4.99e-07
x1 = 0.3151	5.957e-07
x1 = 0.4238	6.386e-07
x1 = 0.4435	6.409e-07
x1 = 0.5057	6.525e-07
x1 = 0.5458	6.501e-07
x1 = 0.6564	5.883e-07
x1 = 0.6617	5.83e-07
x1 = 0.6962	5.604e-07
x1 = 0.7365	5.311e-07
x1 = 0.7625	4.759e-07
x1 = 0.7821	4.581e-07
x1 = 0.8186	4.073e-07
x1 = 0.8623	3.308e-07
x1 = 0.9593	1.15e-07

[1], 308 K
Conditions	excess molar enthalpy [kJ/mol]
x1 = 0.0894	0.295
x1 = 0.1261	0.392
x1 = 0.1734	0.516
x1 = 0.205	0.573
x1 = 0.2668	0.689
x1 = 0.3014	0.736
x1 = 0.326	0.764
x1 = 0.3509	0.787
x1 = 0.4179	0.851
x1 = 0.4544	0.869
x1 = 0.517	0.866
x1 = 0.5526	0.864
x1 = 0.6779	0.777
x1 = 0.7202	0.727
x1 = 0.8233	0.537
x1 = 0.8287	0.525
x1 = 0.9006	0.338
x1 = 0.9307	0.24
